Numbered stars: 1 amine (or outer) side, 2 acyl side, 3 side chain; on linkers, the order of the positions; unused ones are H or OH. Square brackets hold non-standard residues; d marks the D form. Peptide text beside a SMILES is read from it. * marks the point of attachment. Phe(ψ(S)CH(OH)CH2N)Pro = O=C([C@@H]1CCCN1C[C@H](O)[C@H](Cc1ccccc1)N[*:1])[*:2]; X1 = CC(C)CC(C[C@H](O)[C@H](CC1CCCCC1)N[*:1])C(=O)[*:2]; Nle = CCCC[C@H](N)C(=O)O; Orn = NCCC[C@H](N)C(=O)O; Boc = CC(C)(C)OC(=O)*
Tests used:
[1] = target: Human immunodeficiency virus type 1 protease (Human immunodeficiency virus 1) (UniProt Q72874); assay: Affinity for HIV Protease
[2] = Binding affinity against Penicillopepsin
[3] = Binding affinity against Endothiapepsin
[4] = target: T1, Thermolysin (Bacillus thermoproteolyticus) (UniProt P00800); assay: Binding affinity against Thermolysin
T1 sequence (whole entry): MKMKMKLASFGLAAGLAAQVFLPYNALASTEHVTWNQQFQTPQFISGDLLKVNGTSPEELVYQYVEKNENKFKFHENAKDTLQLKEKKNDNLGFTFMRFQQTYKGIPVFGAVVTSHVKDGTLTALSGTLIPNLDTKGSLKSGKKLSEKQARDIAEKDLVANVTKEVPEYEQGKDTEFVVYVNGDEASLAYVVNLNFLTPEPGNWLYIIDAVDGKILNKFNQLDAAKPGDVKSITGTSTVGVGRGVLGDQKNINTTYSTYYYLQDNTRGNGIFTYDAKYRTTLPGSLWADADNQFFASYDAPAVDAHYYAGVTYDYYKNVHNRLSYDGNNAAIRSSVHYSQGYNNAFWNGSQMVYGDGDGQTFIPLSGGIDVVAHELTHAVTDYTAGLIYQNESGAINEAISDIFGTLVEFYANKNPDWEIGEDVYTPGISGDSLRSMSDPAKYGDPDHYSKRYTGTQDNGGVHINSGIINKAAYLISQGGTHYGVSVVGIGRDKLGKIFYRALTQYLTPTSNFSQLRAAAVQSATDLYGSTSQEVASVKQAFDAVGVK

[5] = Binding affinity against TP isomerase
[6] = Binding affinity against Xylose isomerase
[7] = tested on: Purine nucleoside phosphorylase; assay: Binding affinity against Purine Nucleoside Phosphorylase
[8] = Binding affinity against enolase
[9] = Binding affinity against FK506 binding protein
[10] = Binding affinity against Glucose binding protein
[11] = Binding affinity against Glucoamylase
[12] = target: T2, Fatty acid-binding protein, intestinal (Homo sapiens) (UniProt P12104); assay: Binding affinity against Fatty acid-binding protein
T2 sequence (whole entry): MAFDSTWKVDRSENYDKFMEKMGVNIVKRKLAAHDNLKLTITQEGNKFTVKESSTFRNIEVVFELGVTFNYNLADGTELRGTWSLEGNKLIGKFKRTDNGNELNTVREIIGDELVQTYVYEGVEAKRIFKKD

[13] = Binding affinity against Arabinose binding protein of the compound
[14] = Binding affinity against Neuraminidase
[15] = Binding affinity against Histidine-binding protein
[16] = Binding affinity against Retinol-binding protein
[17] = target: Serine protease 1 (Homo sapiens) (UniProt P07477); assay: Binding affinity against trypsin
[18] = target: T3, Mast cell carboxypeptidase A (Homo sapiens) (UniProt P15088); assay: Binding affinity against Carboxypeptidase A
T3 sequence (whole entry): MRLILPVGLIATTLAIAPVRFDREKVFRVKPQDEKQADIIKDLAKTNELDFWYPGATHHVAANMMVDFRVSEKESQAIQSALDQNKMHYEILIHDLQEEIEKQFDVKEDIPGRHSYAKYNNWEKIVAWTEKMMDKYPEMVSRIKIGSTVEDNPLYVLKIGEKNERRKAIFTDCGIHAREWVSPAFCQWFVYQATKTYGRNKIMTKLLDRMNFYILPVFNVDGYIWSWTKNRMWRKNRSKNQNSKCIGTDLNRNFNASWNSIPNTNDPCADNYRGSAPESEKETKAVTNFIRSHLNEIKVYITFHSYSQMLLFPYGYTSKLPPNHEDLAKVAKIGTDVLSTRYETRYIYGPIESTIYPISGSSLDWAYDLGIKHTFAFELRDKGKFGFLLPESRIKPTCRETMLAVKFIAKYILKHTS

[19] = Binding affinity against immunoglobulin
Trypsin II (Bos taurus) = target: T4, Trypsin II (Bos taurus) (UniProt Q29463); assay: log Kd (Binding affinity against specified protein) value of the compound
T4 sequence (whole entry): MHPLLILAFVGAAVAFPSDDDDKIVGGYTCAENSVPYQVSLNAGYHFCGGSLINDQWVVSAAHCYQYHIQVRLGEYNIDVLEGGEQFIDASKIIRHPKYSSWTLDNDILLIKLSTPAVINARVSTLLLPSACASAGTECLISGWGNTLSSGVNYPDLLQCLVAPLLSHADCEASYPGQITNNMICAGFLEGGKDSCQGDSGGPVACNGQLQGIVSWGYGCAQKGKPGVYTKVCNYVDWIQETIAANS

Sequence of Serine protease 1 (Homo sapiens) (P07477 whole entry): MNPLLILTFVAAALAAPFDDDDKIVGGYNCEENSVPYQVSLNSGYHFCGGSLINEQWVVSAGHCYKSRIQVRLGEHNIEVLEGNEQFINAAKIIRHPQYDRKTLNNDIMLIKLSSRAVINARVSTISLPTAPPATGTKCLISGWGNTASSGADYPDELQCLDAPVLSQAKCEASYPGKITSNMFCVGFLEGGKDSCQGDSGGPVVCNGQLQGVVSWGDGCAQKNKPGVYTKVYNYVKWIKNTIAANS

CC=O
Log Kd [1]: -8.41

CC(C)[C@H](NC(=O)N(C)Cc1ccccn1)C(=O)N[C@@H](Cc1ccccc1)[C@H](O)[C@H](O)[C@H](Cc1ccccc1)NC(=O)[C@@H](NC(=O)N(C)Cc1ccccn1)C(C)C
Log Kd [1]: -10.1

CCOC(=O)CC(O)C(CC(C)C)NC(=O)[C@@H](NC(=O)[C@@H](NC(=O)CC(C)C)C(C)C)C(C)C (some centres undefined)
Log Kd [2]: -7.71

CCCC[C@H](NC(=O)[C@H](CCCC)NC(=O)[C@@H](NC(=O)[C@@H](NC(C)=O)[C@@H](C)O)[C@@H](C)CC)C(=O)N[C@@H](CCCN)C(=O)N[C@@H](CCCN=C(N)N)C(N)=O (Ac-TI[Nle][Nle][Orn]R-NH2)
Log Kd [1]: -6.11

CC(C)N(C[C@H](O)[C@H](CC1CCCCC1)NC(=O)[C@H](Cc1c[nH]cn1)NC(=O)[C@H](Cc1ccccc1)NC(=O)OC(C)(C)C)C(=O)N[C@@H](CCCCN)C(=O)N[C@@H](Cc1ccccc1)C(=O)O
Log Kd [3]: -6.58

CC[C@H](C)[C@H](NC(=O)[C@@H](NC[C@H](CC(C)C)NC(=O)[C@H](Cc1c[nH]cn1)NC(=O)[C@H](Cc1ccccc1)NC(=O)[C@@H]1CCCN1C(=O)[C@H](Cc1c[nH]cn1)NC(=O)[C@@H]1CCCN1)C(C)C)C(=O)N[C@@H](Cc1c[nH]cn1)C(=O)N[C@@H](CCCCN)C(=O)O
Log Kd [3]: -6.8

CC(C)CC(C[C@H](O)[C@H](CC1CCCCC1)NC(=O)[C@H](Cc1c[nH]cn1)NC(=O)[C@H](Cc1ccccc1)NC(=O)OC(C)(C)C)C(=O)N[C@@H](CCCCN)C(=O)N[C@@H](Cc1ccccc1)C(=O)O (some centres undefined) (Boc-FH[X1]KF-OH)
Log Kd [3]: -7.11

O=[N+]([O-])Nc1ccccc1
Log Kd [4]: -6.37

O=C(O)COP(=O)(O)O
Log Kd [5]: -4.82

OC[C@@H](O)[C@H](O)[C@@H](O)CO
Log Kd [6]: -5.83

O=P(O)(O)OP(=O)(O)OP(=O)(O)OP(=O)(O)OP(=O)(O)OC[C@H]1O[C@@H](n2cnc3cncnc32)[C@H](O)[C@@H]1O
Log Kd [7]: -5.96

CCC(C)CNC(=O)C(CC(C)C)CC(O)C(CC1CCCCC1)NC(=O)C(Cc1c[nH]cn1)NC(=O)C(Cc1cccc2ccccc12)Cc1cccc2ccccc12 (centres undefined)
Log Kd [3]: -6.63

CC(C)[C@H](NC(=O)N(C)Cc1ccccn1)C(=O)N[C@@H](Cc1ccccc1)[C@@H](O)[C@H](O)[C@H](Cc1ccccc1)NC(=O)[C@@H](NC(=O)N(C)Cc1ccccn1)C(C)C
Log Kd [1]: -9.01

O=C(CP(=O)(O)O)NO
Log Kd [8]: -10.8

C=CC[C@@H]1/C=C(\C)C[C@H](C)C[C@H](OC)[C@H]2O[C@@](O)(C(=O)C(=O)N3CCCC[C@H]3C(=O)O[C@H](/C(C)=C/[C@@H]3CC[C@@H](O)[C@H](OC)C3)[C@H](C)[C@@H](O)CC1=O)[C@H](C)C[C@@H]2OC
Log Kd [9]: -9.7

O=P(O)(O)OP(=O)(O)OC[C@H]1O[C@@H](n2cnc3cncnc32)[C@H](O)[C@@H]1O
Log Kd [7]: -6.22

CC(C)C[C@H](NC(CCc1ccccc1)C(=O)O)C(=O)N[C@@H](Cc1c[nH]c2ccccc12)C(=O)O (some centres undefined)
Log Kd [4]: -7.13

OC[C@H]1OC(O)[C@H](O)[C@@H](O)[C@@H]1O (some centres undefined)
Log Kd [10]: -7.6

OC[C@H]1NC[C@H](O)[C@@H](O)[C@@H]1O
Log Kd [11]: -4.02

CC(C)C[C@H](NC(=O)C[C@H](O)[C@H](CC1CCCCC1)NC(=O)CC[C@H](O)[C@H](Cc1ccccc1)NC(=O)OC(C)(C)C)C(=O)NCc1cccc(CN)c1
Log Kd [3]: -4.8

CC(C)C[C@H](N)C(=O)NO
Log Kd [4]: -3.72

CCCCCCCCCCCCCCCC(=O)O
Log Kd [12]: -5.43

CCOC(=O)CC(OP(=O)(O)O)C(CC(C)C)NC(=O)[C@@H](NC(=O)[C@@H](NC(=O)CC(C)C)C(C)C)C(C)C (some centres undefined)
Log Kd [2]: -7.66

C[C@H]1OC(O)[C@H](O)[C@@H](O)[C@H]1O (some centres undefined)
Log Kd [13]: -5.43

CC(=O)N[C@H]1[C@H]([C@H](O)[C@H](O)CO)OC(C(=O)O)=C[C@@H]1O
Log Kd [14]: -5.31

CC(C)[C@H](NC(=O)N(C)Cc1ccccn1)C(=O)N[C@@H](Cc1ccccc1)C[C@@H](O)[C@H](Cc1ccccc1)NC(=O)[C@@H](NC(=O)N(C)Cc1ccccn1)C(C)C
Log Kd [1]: -10.5

CC1(C)SC(C(NC(=O)Cc2ccccc2)C(=O)NCc2ccccc2)NC1C(=O)NC(Cc1ccccc1)C(O)CC(=O)NCC1=NC2C=CC=CC2=N1 (centres undefined)
Log Kd [1]: -9.69

O=C(N[C@H]1c2ccccc2C[C@H]1O)[C@H](Cc1ccccc1)CC(O)C[C@@H](Cc1ccccc1)C(=O)N[C@H]1c2ccccc2C[C@H]1O
Log Kd [1]: -9.15

CC(C)[C@H](N)C(=O)N[C@@H](Cc1c[nH]c2ccccc12)C(=O)O (H-Val-Trp-OH)
Log Kd [4]: -5.91

CC(C)C[C@H](NP(=O)(O)O)C(N)=O
Log Kd [4]: -5.89

N[C@@H](Cc1c[nH]cn1)C(=O)O
Log Kd [15]: -7.31

CC1=C(/C=C/C(C)=C/C=C/C(C)=C/CO)C(C)(C)CCC1
Log Kd [16]: -6.72

COC(=O)[C@@H](NC(=O)[C@@H](NC(=O)[C@H](C)N1CCC([C@H](C)NC(=O)[C@H](C)N)=C[C@@H](Cc2ccccc2)C1)C(C)C)C(C)C
Log Kd [1]: -6.37

O=C1N(Cc2ccc3ccccc3c2)[C@H](Cc2ccccc2)[C@H](O)[C@@H](O)[C@@H](Cc2ccccc2)N1Cc1ccc2ccccc2c1
Log Kd [1]: -9.52

OC[C@H]1O[C@@H](O)[C@H](O)[C@@H](O)[C@H]1O
Log Kd [13]: -6.65

NCCCCc1ccccc1
Log Kd [17]: -1.7

C[C@@H](O)[C@H](NC(=O)[C@@H]1CCCN1)C(=O)N[C@@H](CCC(=O)O)C(=O)N[C@H](CN[C@@H](Cc1ccccc1)C(=O)N[C@@H](CCCN=C(N)N)C(=O)N[C@@H](CCC(=O)O)C(=O)O)Cc1ccccc1
Log Kd [3]: -7.22

CC1(C)SC(C(NC(=O)Cc2ccccc2)C(=O)NCc2ccccc2)NC1C(=O)NC(CO)Cc1ccccc1 (centres undefined)
Log Kd [1]: -8.1

CC(C)[C@H](NC(=O)N(C)Cc1ccccn1)C(=O)N[C@@H](Cc1ccccc1)C(O)C(O)[C@H](Cc1ccccc1)NC(=O)[C@@H](NC(=O)N(C)Cc1ccccn1)C(C)C (single isomer, unassigned)
Log Kd [1]: -10.1

CC[C@H](C)[C@H](NC(=O)[C@@H]1CCCN1C[C@H](O)[C@H](Cc1ccccc1)NC(=O)[C@H](CC(N)=O)NC(=O)[C@H](CC(C)C)NC(=O)[C@H](CO)NC(C)=O)C(=O)N[C@H](C(=O)OC)C(C)C (Ac-SLN[Phe(ψ(S)CH(OH)CH2N)Pro]IV-OMe)
Log Kd [1]: -9.63

OC1OC[C@H](O)[C@H](O)[C@H]1O (some centres undefined)
Log Kd [13]: -7.03

CC(C)C[C@H](NP(=O)(O)O[C@@H]1O[C@@H](C)[C@H](O)[C@@H](O)[C@H]1O)C(=O)N[C@@H](Cc1c[nH]c2ccccc12)C(=O)O
Log Kd [4]: -7.56

NCCCC[C@H](NC(=O)CN)C(=O)O (H-Gly-Lys-OH)
Log Kd [18]: -3.89

O=P(O)(O)OP(=O)(O)OP(=O)(O)OP(=O)(O)OC[C@H]1O[C@@H](n2cnc3cncnc32)[C@H](O)[C@@H]1O
Log Kd [7]: -5.85

N#Cc1ccc(NC(=N)NC(c2ccccc2)c2ccccc2)cc1
Log Kd [19]: -7.28

CC[C@H](C)[C@@H](NC(=O)[C@@H](C[C@H](O)[C@H](CC(C)C)NC(=O)[C@H](Cc1c[nH]cn1)NC(=O)[C@H](Cc1ccccc1)NC(=O)[C@@H]1CCCN1C(=O)[C@@H](N)Cc1c[nH]cn1)C(C)C)C(=O)N[C@@H](Cc1c[nH]cn1)C(=O)O
Log Kd [3]: -9.02

N=C(N)c1ccccc1
Log Kd [17]: -4.74
Log Kd (Trypsin II (Bos taurus)): -1.83

CC(C)CN(C[C@@H](O)[C@H](Cc1ccccc1)NC(=O)O[C@H]1CCOC1)S(=O)(=O)c1ccc(N)cc1
Log Kd [1]: -9.23
